Results taken from BindingDB's records for patent US20240190893 (Janssen Pharmaceutica, 2024).
Several values for one entry are separate records, joined by “and”; a condition that tells them apart may be missing. Equal entries are not always repeated.

Target: Induced myeloid leukemia cell differentiation protein Mcl-1 (Homo sapiens, UniProt Q07820)
Assay: Terbium labeled Myeloid Cell Leukemia 1 (Mcl-1) homogeneous time-resolved fluorescence (HTRF) binding assay
Excerpt: This assay evaluated inhibition of the BH3 domain: Mcl-1 interaction by measuring the displacement of Cy5-labeled BIM BH3 peptide (H2N (C/Cy5Mal) WIAQELRRIGDEFN-OH) in the HTRF assay format.

Induced myeloid leukemia cell differentiation protein Mcl-1, sequence (Q07820 whole entry): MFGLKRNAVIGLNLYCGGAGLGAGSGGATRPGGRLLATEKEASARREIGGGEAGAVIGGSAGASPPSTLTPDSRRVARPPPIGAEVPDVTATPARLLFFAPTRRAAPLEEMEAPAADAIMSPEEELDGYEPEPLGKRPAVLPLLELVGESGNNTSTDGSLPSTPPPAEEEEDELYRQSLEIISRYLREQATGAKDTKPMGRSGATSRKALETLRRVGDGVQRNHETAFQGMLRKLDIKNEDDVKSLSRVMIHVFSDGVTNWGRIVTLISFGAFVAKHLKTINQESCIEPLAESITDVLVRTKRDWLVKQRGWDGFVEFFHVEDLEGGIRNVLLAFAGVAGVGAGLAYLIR

Ki: 1.44 nM and 0.249 nM
Compound: Cc1nn(C)c(C)c1-c1c(Cl)ccc2c3c(C(=O)O)n(c12)CCCSCc1cc(n(C)n1)CSc1cc(c2ccccc2c1)OCCC3 [US20240190893, Compound 19]
